Values belong to the molecule of their own block, whether it stands above or below them. Activity calls are given as the source filed them.
Tests used:
Cytochrome P450 3A4 = Cytochrome P450 3A4 (Homo sapiens, UniProt P08684);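 further: CYP3A4 tested as one member of a cytochrome P450 panel screen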
[1] = viability of uninfected HEp-2 cells – cell-based, HTS, cytotoxicity control for RSV inhibitor project, dose response (AID 2410); assay type: functional; conditions: human respiratory syncytial virus
[2] = target: T1, RNA-binding protein pos-1 (Caenorhabditis elegans, UniProt G5EF15); assay: disruptors of C. elegans POS-1 RNA interaction – biochemical, fluorescence polarization, dose response (AID 1964);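 further: purified POS-1 fused to maltose binding protein made in E. coli; potency of compounds blocking POS-1 binding to fluorescent RNA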
T1 sequence (G5EF15 whole entry): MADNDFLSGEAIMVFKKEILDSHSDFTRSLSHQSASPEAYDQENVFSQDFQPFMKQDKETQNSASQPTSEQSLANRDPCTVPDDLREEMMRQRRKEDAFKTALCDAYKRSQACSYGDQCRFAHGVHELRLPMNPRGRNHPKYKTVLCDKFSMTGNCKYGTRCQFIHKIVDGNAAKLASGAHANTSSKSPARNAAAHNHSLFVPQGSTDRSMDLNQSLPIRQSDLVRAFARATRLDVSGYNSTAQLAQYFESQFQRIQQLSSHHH

[3] = target: T2, Zinc finger protein mex-5 (Caenorhabditis elegans, UniProt Q9XUB2); assay: potency of MEX-5 RNA-binding blockers – biochemical, C. elegans, fluorescence polarization, dose response (AID 1960)
T2 sequence (Q9XUB2 whole entry): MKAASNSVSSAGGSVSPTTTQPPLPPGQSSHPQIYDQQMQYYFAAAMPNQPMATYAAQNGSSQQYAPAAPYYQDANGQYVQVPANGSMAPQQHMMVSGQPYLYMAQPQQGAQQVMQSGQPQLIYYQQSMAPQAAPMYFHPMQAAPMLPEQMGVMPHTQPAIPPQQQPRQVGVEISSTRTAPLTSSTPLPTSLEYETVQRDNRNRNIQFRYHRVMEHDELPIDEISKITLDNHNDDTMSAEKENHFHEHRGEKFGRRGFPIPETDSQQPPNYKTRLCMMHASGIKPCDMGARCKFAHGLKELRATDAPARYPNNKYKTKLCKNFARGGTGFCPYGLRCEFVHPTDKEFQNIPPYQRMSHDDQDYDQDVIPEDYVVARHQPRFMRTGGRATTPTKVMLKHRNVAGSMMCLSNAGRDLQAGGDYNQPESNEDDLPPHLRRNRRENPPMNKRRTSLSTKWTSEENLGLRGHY

Cytochrome P450 2C9 = Cytochrome P450 2C9 (Homo sapiens, UniProt P11712)
Chain of Cytochrome P450 2C9 (P11712 whole entry): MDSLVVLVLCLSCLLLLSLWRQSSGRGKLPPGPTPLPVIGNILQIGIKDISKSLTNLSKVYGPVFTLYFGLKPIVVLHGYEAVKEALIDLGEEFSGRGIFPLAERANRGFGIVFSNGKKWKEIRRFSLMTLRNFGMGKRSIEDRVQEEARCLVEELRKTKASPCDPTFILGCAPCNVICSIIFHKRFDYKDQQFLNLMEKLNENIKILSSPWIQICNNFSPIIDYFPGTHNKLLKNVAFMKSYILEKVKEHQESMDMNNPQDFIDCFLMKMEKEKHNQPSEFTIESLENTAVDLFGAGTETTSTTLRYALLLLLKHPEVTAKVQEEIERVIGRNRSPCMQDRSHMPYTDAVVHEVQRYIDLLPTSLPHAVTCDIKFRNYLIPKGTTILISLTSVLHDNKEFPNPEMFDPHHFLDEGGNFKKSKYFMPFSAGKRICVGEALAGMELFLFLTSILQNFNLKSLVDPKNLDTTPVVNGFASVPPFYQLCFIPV

[4] = target: FAD-linked sulfhydryl oxidase ALR (Homo sapiens, UniProt P55789); assay: ALR-catalysed DTT oxidation blockers – biochemical, H2O2 detection, luminescence, cherry-pick, dose response (AID 493248)
Chain of FAD-linked sulfhydryl oxidase ALR (P55789 whole entry): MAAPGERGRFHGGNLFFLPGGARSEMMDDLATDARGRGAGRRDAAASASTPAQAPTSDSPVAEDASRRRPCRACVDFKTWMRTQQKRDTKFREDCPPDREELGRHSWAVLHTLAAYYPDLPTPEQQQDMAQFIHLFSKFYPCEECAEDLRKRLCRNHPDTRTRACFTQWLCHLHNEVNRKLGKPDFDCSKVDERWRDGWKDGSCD

Cytochrome P450 1A2 = target: T3, Cytochrome P450 1A2 (Homo sapiens, UniProt P05177);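 further: PubChem cytochrome P450 panel assay, CYP1A2 panel member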
T3 sequence (P05177 whole entry): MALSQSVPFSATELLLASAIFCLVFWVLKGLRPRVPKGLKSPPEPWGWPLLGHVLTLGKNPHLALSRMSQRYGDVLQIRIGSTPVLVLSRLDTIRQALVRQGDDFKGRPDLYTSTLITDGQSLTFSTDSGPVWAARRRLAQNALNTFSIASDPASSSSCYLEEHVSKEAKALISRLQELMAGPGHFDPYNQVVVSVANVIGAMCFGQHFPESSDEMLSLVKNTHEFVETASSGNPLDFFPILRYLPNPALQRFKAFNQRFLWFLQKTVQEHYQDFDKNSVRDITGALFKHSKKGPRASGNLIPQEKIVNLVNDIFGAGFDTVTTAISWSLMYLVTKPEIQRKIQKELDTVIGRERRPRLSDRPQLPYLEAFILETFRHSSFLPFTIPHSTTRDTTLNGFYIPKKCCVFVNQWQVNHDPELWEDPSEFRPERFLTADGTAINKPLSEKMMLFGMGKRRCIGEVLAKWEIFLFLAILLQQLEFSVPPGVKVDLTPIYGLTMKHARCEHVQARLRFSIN

Cytochrome P450 2C19 = Cytochrome P450 2C19 (Homo sapiens, UniProt P33261); assay: Cytochrome panel assay with activity outcomes. Panel member name: p450-cyp2c19 Compounds with AC50 equal or less than 10 uM are considered active; assay type: functional; conditions: read-out: AC50
Chain of Cytochrome P450 2C19 (P33261 whole entry): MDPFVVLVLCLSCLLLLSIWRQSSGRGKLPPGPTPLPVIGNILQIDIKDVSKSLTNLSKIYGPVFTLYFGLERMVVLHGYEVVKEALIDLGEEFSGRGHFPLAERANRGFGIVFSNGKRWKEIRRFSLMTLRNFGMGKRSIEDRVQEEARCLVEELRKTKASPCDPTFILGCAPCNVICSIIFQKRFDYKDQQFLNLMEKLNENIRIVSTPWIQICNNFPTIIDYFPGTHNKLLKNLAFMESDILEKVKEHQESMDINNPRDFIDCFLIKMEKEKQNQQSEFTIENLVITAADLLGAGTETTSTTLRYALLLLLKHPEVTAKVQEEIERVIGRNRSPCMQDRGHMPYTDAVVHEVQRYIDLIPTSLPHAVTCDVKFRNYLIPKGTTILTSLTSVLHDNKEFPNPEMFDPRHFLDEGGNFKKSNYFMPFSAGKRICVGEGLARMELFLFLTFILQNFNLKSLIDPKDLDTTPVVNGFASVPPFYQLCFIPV

[5] = NIH3T3 cell viability loss – ATP luminescence, mouse fibroblasts, counter-screen, dose response (AID 2010); assay type: functional, cell-based;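 further: cells exposed to compound for about 90 hours before reading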
[6] = Trypanosoma cruzi growth suppression in host cells – NIH3T3 host cells, beta-gal luminescence, confirmation (AID 2044); assay type: functional, cell-based;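 further: intracellular parasites grown in NIH/3T3 mouse fibroblasts as host cells; luminescent beta-galactosidase reporter signal from transgenic T. cruzi replicating inside host cells; inhibitors lower the luminescence signal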
Cytochrome P450 2D6 = Cytochrome P450 2D6 (Homo sapiens, UniProt P10635);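 further: CYP2D6 member of a cytochrome P450 panel assay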
Chain of Cytochrome P450 2D6 (P10635 whole entry): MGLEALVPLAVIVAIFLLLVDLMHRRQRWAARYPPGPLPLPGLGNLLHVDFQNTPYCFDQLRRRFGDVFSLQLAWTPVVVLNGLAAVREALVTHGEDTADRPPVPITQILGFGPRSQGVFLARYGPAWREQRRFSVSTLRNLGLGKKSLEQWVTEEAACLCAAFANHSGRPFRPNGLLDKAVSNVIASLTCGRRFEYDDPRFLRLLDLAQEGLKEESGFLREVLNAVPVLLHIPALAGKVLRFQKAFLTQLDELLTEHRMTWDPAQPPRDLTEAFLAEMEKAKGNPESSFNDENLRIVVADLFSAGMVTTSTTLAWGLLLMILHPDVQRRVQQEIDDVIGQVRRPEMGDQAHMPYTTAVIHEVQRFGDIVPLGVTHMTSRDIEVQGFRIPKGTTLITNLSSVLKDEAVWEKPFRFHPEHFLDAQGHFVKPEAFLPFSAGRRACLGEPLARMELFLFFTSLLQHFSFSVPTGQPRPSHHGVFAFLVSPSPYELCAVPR

Streptococcus = assay: GAS UMAA2166 growth inhibition – luminescence, BacTiterGlo, counter-screen for streptokinase expression inhibitor project, dose response (AID 1915); assay type: functional, organism-based;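 further: potency for reduction of bacterial viability or growth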
[7] = test system: Streptococcus sp. 'group A'; assay: Streptococcus pyogenes SK(-)GAS viability under kanamycin – luminescence, BacTiterGlo, confirmation, counter-screen for streptokinase expression inhibitor project, dose response (AID 1900); assay type: functional, organism-based
[8] = target: T4, Rac GTPase-activating protein 1 (Homo sapiens, UniProt Q9H0H5); assay: blockers of MgcRacGAP-driven Rac1 GTP hydrolysis – biochemical, ADP Hunter fluorescence, primary and confirmatory, confirmation (AID 624330); assay type: functional
T4 sequence (Q9H0H5 whole entry): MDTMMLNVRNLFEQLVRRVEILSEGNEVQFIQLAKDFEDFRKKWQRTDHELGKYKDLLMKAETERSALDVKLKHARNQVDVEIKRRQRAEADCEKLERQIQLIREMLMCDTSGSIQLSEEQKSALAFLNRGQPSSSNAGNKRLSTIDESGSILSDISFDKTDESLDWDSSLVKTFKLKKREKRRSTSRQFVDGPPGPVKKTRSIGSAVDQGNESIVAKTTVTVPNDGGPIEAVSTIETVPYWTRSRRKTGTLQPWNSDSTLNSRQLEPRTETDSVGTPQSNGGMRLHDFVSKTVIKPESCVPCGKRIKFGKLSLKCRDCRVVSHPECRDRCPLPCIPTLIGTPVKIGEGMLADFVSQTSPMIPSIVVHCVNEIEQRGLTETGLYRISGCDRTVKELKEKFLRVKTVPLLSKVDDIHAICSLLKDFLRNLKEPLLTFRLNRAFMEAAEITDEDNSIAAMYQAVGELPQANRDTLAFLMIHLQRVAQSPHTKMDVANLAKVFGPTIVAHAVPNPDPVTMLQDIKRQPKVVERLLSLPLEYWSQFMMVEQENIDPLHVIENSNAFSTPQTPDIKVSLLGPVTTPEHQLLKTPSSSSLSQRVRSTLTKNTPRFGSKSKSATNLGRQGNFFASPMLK

Chain of Cytochrome P450 3A4 (P08684 whole entry): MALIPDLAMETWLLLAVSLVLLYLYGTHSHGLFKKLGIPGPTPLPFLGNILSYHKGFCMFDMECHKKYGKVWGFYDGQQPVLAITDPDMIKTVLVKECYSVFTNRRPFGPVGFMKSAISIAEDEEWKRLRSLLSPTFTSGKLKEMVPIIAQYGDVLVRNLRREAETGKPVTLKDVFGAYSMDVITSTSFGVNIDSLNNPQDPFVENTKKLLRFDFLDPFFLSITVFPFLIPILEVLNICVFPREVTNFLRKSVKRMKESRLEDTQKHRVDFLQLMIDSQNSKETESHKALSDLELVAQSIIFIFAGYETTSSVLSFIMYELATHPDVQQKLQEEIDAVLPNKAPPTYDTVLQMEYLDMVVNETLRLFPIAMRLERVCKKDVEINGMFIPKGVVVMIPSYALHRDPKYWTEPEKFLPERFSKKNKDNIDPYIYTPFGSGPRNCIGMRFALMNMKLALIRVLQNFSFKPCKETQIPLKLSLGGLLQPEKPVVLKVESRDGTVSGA

Compound: CN1CCN(c2ncnc3ccc(-c4cccc(C#N)c4)cc23)CC1
- AC50 (Cytochrome P450 3A4): 25.1 µM (inconclusive)

Compound: N#CC1=C(N)OC2=C(CC/C2=C\c2ccc(F)cc2)C1c1ccc(F)cc1 (stereo not given)
- CC50 [1]: 8.44 µM (active)

Compound: COc1ccc(-n2c(N)c(C(=O)Nc3c(C)n(C)n(-c4ccccc4)c3=O)c3nc4ccccc4nc32)cc1
- CC50 [1]: > 50 µM (active)

Compound: Cc1ccccc1C(=O)Nc1cc(-c2cc(C(C)(C)C)oc2C)nn1C
- CC50 [1]: 19.7 µM (active)

Compound: COc1ccc(/C=C2\SC(=S)N(CCC(=O)NC3CCCC3)C2=O)cc1OC
- EC50 [2]: > 300 µM (not active)
- EC50 [3]: 153 µM (active)

Compound: CCCSc1nc(SCC(=O)NCc2ccccc2)c2c3c(sc2n1)COC(C)(CC)C3 (stereo not given)
- AC50 (Cytochrome P450 3A4): 7.08 µM (inconclusive)

Compound: CCc1c(C(=O)NCc2ccccc2Cl)[nH]c(C)c1C(C)=O
- CC50 [1]: > 50 µM (active)

Compound: NC(=O)C1CCN(C(=O)N2c3ccccc3Sc3ccccc32)CC1
- AC50 [4]: 10.8 µM (active)

Compound: Nc1ccccc1Nc1cc(-c2ccccc2)nn1-c1cccc(Cl)c1
- CC50 [1]: 26.3 µM (active)
- EC50 [5]: > 60 µM (not active)
- EC50 [6]: 5.32 µM (active)

Compound: CC(C)(C)OC(=O)NCCCCCNC(=O)c1[nH]cnc1C(=O)N[C@@H](Cc1ccccc1)C(=O)OCc1ccccc1
- CC50 [1]: 12.5 µM (active)

Compound: CN1CCC2(CC1)C(C#N)=C(N)NC(S)=C2C#N
- EC50 [2]: 8.05 µM (active)
- EC50 [3]: 8.53 µM (active)

Compound: O=[N+]([O-])c1ccc(/C=N/Nc2nc(N3CCCCCC3)nc(N3CCCCCC3)n2)o1
- CC50 [1]: 11.6 µM (active)
- EC50 (Streptococcus): 2.35 µM (active)
- EC50 [5]: > 60 µM (not active)
- EC50 [7]: 0.504 µM (active)
- EC50 [6]: 0.197 µM (active)

Compound: COc1ccc(CSC2=C(C#N)C(=O)NC3(CCCCC3)S2)cc1
- AC50 (Cytochrome P450 2C9): 3.16 µM (inconclusive)

Compound: CCO[C@H]1OC(C(=O)Nc2ccccc2)=C[C@@H](c2ccc(C(F)(F)F)cc2)[C@@H]1CCCO
- CC50 [1]: 17.5 µM (active)

Compound: CCCN(Cc1nnc(-c2ccccc2Cl)o1)C(=O)c1oc2ccccc2c1C
- CC50 [1]: 19.6 µM (active)

Compound: COc1cc2c(c(OC)c1OC)-c1ccc(O)c(=O)cc1[C@H](N)CC2
- AC50 (Cytochrome P450 3A4): 3.16 µM (inconclusive)

Compound: Cc1ccc(S(=O)(=O)c2c(N)n(NC(=O)c3ccccc3C)c3nc4ccccc4nc23)cc1
- CC50 [1]: 22.9 µM (active)

Compound: COC(=O)c1cccc(-n2c(C)cc(C=O)c2C)c1C
- EC50 [2]: > 300 µM (not active)
- EC50 [3]: > 300 µM (not active)

Compound: Cc1ccc2cccc(S(=O)(=O)N3CCN(c4cccc(Cl)c4)CC3)c2n1
- CC50 [1]: 46.9 µM (active)

Results, then the molecule that gave them:

- AC50 (Cytochrome P450 2C9): 0.631 µM (inconclusive)
Compound: COc1cccc(-c2cc(C(F)(F)F)nc(N3CCN(c4ccccc4)CC3)n2)c1

- AC50 [4]: 2.33 µM (active)
Compound: CN(C)c1ccc(C(C(=O)NC2CCCC2)N(C(=O)c2ccco2)C2CC2)cc1 (stereo not given)

- EC50 [2]: > 300 µM (not active)
- EC50 [3]: > 300 µM (not active)
Compound: CC(C)Cc1nnc(NC(=O)CCC(=O)N2CC(C)CC(C)C2)s1 (stereo not given)

- AC50 [4]: 2.18 µM (active)
Compound: CCN1/C(=C2/SC(=S)NC2=O)Sc2ccccc21

- EC50 [2]: 52.2 µM (active)
- EC50 [3]: 28.9 µM (active)
Compound: CC1(OC(=O)c2ccco2)C(=O)C=C2C=C(c3ccc(C#N)cc3)OC=C2C1=O (stereo not given)

- AC50 (Cytochrome P450 3A4): 0.794 µM (inconclusive)
- AC50 (Cytochrome P450 1A2): 2 µM (inconclusive)
Compound: O=C1N/C(=C\c2ccc(N3CCOCC3)c(F)c2)C(=O)N1Cc1ccccc1

- AC50 (Cytochrome P450 3A4): 5.01 µM (inconclusive)
- AC50 (Cytochrome P450 1A2): 31.6 µM (inconclusive)
Compound: CN(C)C(=O)c1ccc(-c2cncnc2Nc2ccccc2)cc1

- AC50 [4]: 3.94 µM (active)
- AC50 (Cytochrome P450 1A2): 28.2 µM (inconclusive)
- AC50 (Cytochrome P450 2C19): 39.8 µM (inconclusive)
Compound: COc1ccc(-c2[nH]c(-c3ccc(C(=O)O)cc3)nc2-c2ccccc2)cc1

- AC50 (Cytochrome P450 3A4): 28.2 µM (inconclusive)
Compound: COC(=O)c1sccc1-c1ccc(C(=O)Nc2cccc(Cl)c2)o1

- AC50 (Cytochrome P450 2D6): 15.8 µM (inconclusive)
- AC50 (Cytochrome P450 3A4): 39.8 µM (inconclusive)
Compound: CC(=O)N1CCC2(CCCN(Cc3nccs3)C2)CC1

- AC50 (Cytochrome P450 3A4): 3.98 µM (inconclusive)
Compound: C[C@H](C(=O)c1ccncc1)c1ccccn1

- AC50 (Cytochrome P450 2C9): 0.0158 µM (inconclusive)
Compound: COc1ccc(CNc2ncnc3ccc(-c4cccc(C#N)c4)cc23)c(OC)c1

- AC50 (Cytochrome P450 2C9): 39.8 µM (inconclusive)
Compound: Cn1c(N)c(C(=O)CSc2ccc3c(c2)OCCO3)c(=O)n(C)c1=O

- AC50 (Cytochrome P450 3A4): 1.41 µM (inconclusive)
Compound: Cc1ccc(CSc2nnc(-c3ccncc3)n2CC2CCCO2)cc1 (stereo not given)

- AC50 [4]: 2.73 µM (active)
Compound: O=C(O)CC/C(=N\Nc1ccccc1[N+](=O)[O-])c1cccs1

- EC50 [2]: > 300 µM (not active)
- EC50 [3]: > 300 µM (not active)
Compound: Cc1ccc(C)c(N(C)C(=O)c2coc(=O)c3ccccc23)c1

- AC50 [4]: 1.49 µM (active)
Compound: O=C(O)c1cc2ccccc2cc1Nc1ccccc1

- AC50 (Cytochrome P450 3A4): 15.8 µM (inconclusive)
- AC50 (Cytochrome P450 1A2): 39.8 µM (inconclusive)
Compound: CC(C)C[C@H](NC(=O)N1CCCCCC1)C(=O)N[C@H](Cc1cn(C)c2ccccc12)C(=O)N[C@H](Cc1ccccn1)C(=O)O

- AC50 [4]: 0.098 µM (active)
Compound: CN1CCCC(CN2c3ccccc3Sc3ccccc32)C1 (stereo not given) [MEPAZINE ACETATE]

- AC50 [4]: 0.477 µM (active)
Compound: CN1CC(=O)N(CC(=O)Nc2ccc(SC(F)F)cc2)C1=O

- AC50 [4]: 5.95 µM (active)
Compound: O=C(O)c1ccc(-n2c(/C=C/c3ccccc3)nc3ccccc3c2=O)cc1

- EC50 [2]: 117 µM (active)
- EC50 [3]: 18.5 µM (active)
Compound: COc1cc2[nH]c(C(=O)NN)c(N)c2cc1OC

- EC50 [2]: > 300 µM (not active)
- EC50 [3]: > 300 µM (not active)
Compound: Cc1ccc2nc3c(cc(C(=O)NCC4CCCO4)c(=N)n3C3CCCC3)c(=O)n2c1 (stereo not given)

- AC50 (Cytochrome P450 3A4): 5.01 µM (inconclusive)
- AC50 (Cytochrome P450 2C19): 11.2 µM (inconclusive)
Compound: COc1ccc(C(=O)/C=C(/C)N(C)C)cc1

- AC50 [4]: 0.394 µM (active)
Compound: CCN(CCNC(=O)C1CCCN(S(=O)(=O)c2c[nH]cn2)C1)c1ccccc1 (stereo not given)

- AC50 [4]: 8.71 µM (active)
Compound: Cn1c(S)nnc1CSCc1ccc(Cl)cc1

- EC50 [2]: > 300 µM (not active)
- EC50 [3]: > 300 µM (inconclusive)
Compound: COc1ccccc1CCC(=O)OCc1csc(CC(=O)Nc2ccccc2C)n1

- AC50 [4]: 0.02 µM (active)
- IC50 [8]: 26.8 µM (active)
Compound: C/C(=N\Nc1nc2ccccc2[nH]1)c1cccs1
